# Reference: patent US11147295B2, “Sweetener and flavor compositions, methods of making and methods of use thereof” (EPC Natural Products Co., Ltd., priority 2018, dated 2021)
# Legend:
# [1] = DPPH radical-scavenging activity (Example 65); format: physicochemical; settings: iron-III reduction and DPPH radical scavenging, samples kept at 100° C. 0, 2.5 or 5.0 hours
# Experimental: 1 mg 1,1-Diphenyl-2-picrylhydrazyl radical (DPPH)/ml ethanol, dilution to assay concentration were prepared in ethanol (40 μg/mL); Calibration samples were prepared with Ascorbic acid in a concentration of 0-10 μg/mL; as a negative control sample, water was used.
# Samples in aqueous solution were used as such or diluted with water.
# A 0.1 ml sample (or calibration standard) was mixed with 3.9 ml solution of DPPH (100 μMolar) and reacted while protected from light at room temperature for 30 min. Absorbance was determined at 517 nm against ethanol.
# 10 mM of amino acid and/or 10 mM sugar were dissolved in 10 ml 0.1 mM KH2PO4-buffer, pH=7.8.
# The samples were kept at 100° C. in sealed glass vials (Pyrex 15 ml with screw caps) for 0 (before reaction), 2.5 or 5.0 hours. Thereafter the samples were transferred to an ice water bath and cooled down to room temperature. These samples were diluted 1:10 and used for the test assay for anti-oxidant potential.
# [2] = Sensory analysis of Maillard reaction samples: odor/smell, color, taste (Examples 55-62); format: in vivo, human; settings: Example 56, negative controls (no carbohydrate source); 10 ml glycerin/water=9:1, 100° C., 40 minutes
# Experimental: All reactions were performed in 10 ml glycerin/water=9:1. The reaction partners were dissolved in water and then warmed glycerin (60° C.) was added. The reactions were performed at 100° C. for 40 minutes in a drying oven (sealed vials were positioned in pre-heated sand to increase heat transfer).
# All samples were assessed at 22° C. after the Maillard reaction was stopped by placing the sealed vials in an ice bath. After 20 minutes in the ice bath the sealed vials were put in a water bath set to 22° C.
# The odor/smell was assessed independently by 3 persons; the final description was agreed after discussion. […] The taste was assessed independently by 3 persons either in the original samples or after appropriate dilution to achieve relevant concentrations of sugars and steviol-glycosides (i.e. 5-9% SE); the final description was agreed after discussion.
# [3] = Sensory evaluation of the samples prepared in Example 50 (Example 52); format: in vivo, human; parameters: key to Intensity of Smell: “+” for slight; “++” for moderate; “+++” for very strong
# Experimental: The reaction partner (amino acid, carbohydrate source) were dissolved/suspended in the reaction solvent and transferred into a glass beaker filled with sand pre-heated for at least 30 minutes at the reaction temperature in a drying oven. After the planned reaction time, the vials were transferred into ice water. After cooling to room temperature, sensory analysis and analytical characterization was performed.
# For evaluation of the taste profile, the samples were tested by a panel of four people. 1 trained taster tasted independently the samples first. The taster was asked to describe the taste profile and score 0-5 according to the increasing sugar likeness, bitterness, aftertaste and lingering taste profiles. The first taster was allowed to re-taste, and then make notes for the sensory attributes perceived. Afterwards, another 3 tasters tasted and the attributes were noted and discussed openly to find a suitable description. In case that more than 1 taster disagreed with the results, the tasting was repeated. In some sensory test results (above), the taste rating was expressed by “+”, which means the intensity of the factors is shown by three levels. “+” for slight, “++” for moderate and “+++” for very strong.
# [4] = the sweeteness depends on the tested concentration compared with sucrose; cited from earlier work
# [5] = Sensory analysis of Maillard reaction samples: odor/smell, color, taste (Examples 55-62); format: in vivo, human
# [6] = Table 52.1, 1 ml water + 9 ml Glycerin, 1 h, 100° C. (Table 50.1)
# [7] = Table 52.2, 1 ml water + 9 ml Glycerin, 0.67 h, 100° C. (Table 50.2)
# [8] = Table 52.6, Glycerin, 10 ml, 100° C., 40 min (Table 50.6)
# [9] = Table 52.7, Glycerin, 10 ml, 1 h, 120° C. (Table 50.7)
# [10] = Table 52.3, 1 ml water + 9 ml Glycerin, 0.67 h, 100° C. (Table 50.3)
# [11] = Example 57, after reaction, 10 ml KH2PO4, pH 7.8, 2.5 h, 120° C.
# [12] = Example 57, before reaction, 10 ml KH2PO4, pH 7.8
# [13] = Table 52.5, 1 ml water + 9 ml Glycerin, 2.0 h, 120° C. (Table 50.5)
compound,measurement,setting,value
"C=C1C[C@@]23CC[C@H]4[C@@](C)(CCC[C@@]4(C)C(=O)O[C@@H]4O[C@H](CO)[C@@H](O)[C@H](O)[C@H]4O)[C@@H]2CC[C@]1(O[C@@H]1O[C@H](CO)[C@@H](O)[C@H](O[C@@H]2O[C@H](CO)[C@@H](O)[C@H](O)[C@H]2O)[C@H]1O[C@@H]1O[C@H](CO)[C@@H](O)[C@H](O)[C@H]1O)C3 [Reb-A, Rebaudioside A]",anti-oxidant properties,[1],substantial anti-oxidant properties
NCCCC[C@H](N)C(=O)O [14.7 mg Lys],Smell,[2],Popcorn
same,Taste,[2],Slightly sweet
N[C@@H](Cc1ccccc1)C(=O)O [Phe 60 mMol],Smell,[3]; [6],flowery/bloomy-caramel
same,Taste,[3]; [6],Sweet
N[C@@H](CCC(=O)O)C(=O)O [167 mMol Glu],Smell,[3]; [6],caramel
same,Taste,[3]; [6],Sweet
O=C(O)[C@@H]1CCCN1 [11.5 mg Pro],Taste,[2],Slightly sweet
C=C1C[C@@]23CC[C@H]4[C@@](C)(CCC[C@@]4(C)C(=O)O[C@@H]4O[C@H](CO)[C@@H](O)[C@H](O)[C@H]4O)[C@@H]2CC[C@]1(O[C@@H]1O[C@H](CO)[C@@H](O)[C@H](O[C@@H]2O[C@H](CO)[C@@H](O)[C@H](O)[C@H]2O)[C@H]1O[C@@H]1O[C@H](CO)[C@@H](O)[C@H](O)[C@H]1O)C3 [0.05 mMol Reb-A],Smell,[3]; [7],neutral/unpleasant
same,Taste,[3]; [7],sweet
OC[C@H]1OC(O)[C@H](O)[C@@H](O)[C@@H]1O (stereo partly shown) [10 mMol Glu],Smell,[3]; [8],Slightly Caramel
same,Smell,[3]; [9],Slightly Caramel
NCCCC[C@H](N)C(=O)O [0.1 mMol Lys],Smell,[3]; [10],Popcorn
same,Taste,[3]; [10],Sweet
C[C@H](N)C(=O)O [8.91 mg Ala],Smell,[2],"Neutral, slightly Agar"
same,Taste,[2],Slightly sweet
OC[C@H]1O[C@H](O[C@]2(CCl)O[C@H](CCl)[C@@H](O)[C@@H]2O)[C@H](O)[C@@H](O)[C@H]1Cl [sucralose],times sweeter than sucrose,[4],about 600 times
O=C[C@H](O)[C@@H](O)[C@H](O)[C@H](O)C(=O)O [Glucuronic Acid],Smell,[5]; [11],burnt bread
same,Taste,[5]; [11],Bitter
Thaumatin,times sweeter than sucrose,[4],about 2000 times
OC[C@H]1OC(O)[C@H](O)[C@@H](O)[C@@H]1O (stereo partly shown) [9 mg Glucose],Smell,[5]; [12],neutral
same,Taste,[5]; [12],Sweet
N[C@H](Cc1ccccc1)C(=O)O [Phe],Smell,[5]; [11],"Caramel, burnt"
same,Taste,[5]; [11],sweet
N[C@@H](Cc1c[nH]c2ccccc12)C(=O)O [20.42 mg Try],Smell,[2],Unpleasant (fecal)
same,Taste,[2],Slightly sweet
CSCC[C@H](N)C(=O)O [14.9 mg Met],Smell,[2],Sulfuric
same,Taste,[2],Slightly sweet
O=S(=O)([O-])NC1CCCCC1.[Na+] [sodium cyclamate],times sweeter than sucrose,[4],about 30 times
CC[C@H](C)[C@H](N)C(=O)O [13.11 mg Ile],Smell,[2],Coffee
same,Taste,[2],Slightly sweet
N[C@@H](Cc1ccccc1)C(=O)O [16.5 mg Phe],Smell,[2],"Bloomy, caramel"
same,Taste,[2],Slightly sweet
same,Smell,[5]; [12],neutral
same,Taste,[5]; [12],No taste
same,Smell,"[5]; Example 58, before reaction, 10 ml KH2PO4, pH 7.8",Neutral
same,Taste,"[5]; Example 58, before reaction, after dilution 1:20",No taste
O=C1O[C@@H]2[C@@H](O)[C@H](O)O[C@@H]2C1O (stereo partly shown) [Glucuronolactone],Smell,[5]; [11],Burnt sugar
same,Taste,[5]; [11],Bitter
N[C@@H](Cc1ccccc1)C(=O)O [3.3 mMol Phe],Smell,"[3]; Table 52.6, Glycerin, 10 ml, 100° C., 5 min (Table 50.6)",Slightly bloomy
same,Smell,"[3]; Table 52.6, Glycerin, 10 ml, 100° C., 10 min (Table 50.6)",flowery/bloomy
same,Smell,"[3]; Table 52.6, Glycerin, 10 ml, 100° C., 20 min (Table 50.6)",flowery/bloomy
same,Smell,[3]; [8],flowery/bloomy
same,Smell,[3]; [9],flowery/bloomy
N[C@@H](Cc1ccc(O)cc1)C(=O)O [18.1 mg Tyr],Smell,[2],neutral
same,Taste,[2],Slightly sweet
N[C@@H](CO)C(=O)O [10.5 mg Ser],Smell,[2],Lotus flower
same,Taste,[2],Slightly sweet
O=C[C@H](O)[C@H]1OC(=O)[C@@H](O)[C@H]1O [0.1 mMol GlucLac],Intensity of Smell,[3]; [13],+++
same,Smell,[3]; [13],Burnt sugar
same,Taste,[3]; [13],Bitter
C[C@@H](O)[C@H](N)C(=O)O [11.91 mg Thr],Smell,[2],"Vanilla, butter"
same,Taste,[2],Slightly sweet
N[C@@H](Cc1ccccc1)C(=O)O [0.1 mMol Phe],Taste,[3]; [7],sweet
same,Intensity of Smell,[3]; [13],+
same,Smell,[3]; [13],"Caramel, burnt"
same,Taste,[3]; [13],sweet
C[C@H](N)C(=O)O [0.1 mMol Ala],Smell,[3]; [7],Agar
same,Taste,[3]; [7],sweet
N[C@@H](CS)C(=O)O [12.1 mg Cys],Smell,[2],Unpleasant (sulfur)
same,Taste,[2],Slightly sweet
